Laboratory results as given in paper doi:10.1101/2025.08.13.670037v1 (bioRxiv, 2025).
No end group written: not given here.

Experiment: Stability of peptide in human plasma
Type: in vitro ADME

PVLDLFRELLNELLEALKQKLKPDWLKAFYDKVAEKLKEAF [22A-P-18A]
peptide lost, in sHDL particles (human plasma, 24h incubation): 15%
remaining at 24 h, 0.25 mg/mL (human, plasma, SD): 73.6 ± 6.3%
